Laboratory results reported in patent publication US8846569B2, “Pesticidal bis-organosulfur compounds” (Merial Limited, priority 2009, dated 2014).
Where two headings read alike, the source gives them in different places.

Columns and labels:
Heliothis virescens = assay: Tobacco budworm (Heliothis virescens) diet/egg test; format: in vivo; conditions: for mortality at 2500 ppm: Heliothis virescens, 120 h, read-out: mortality in comparison with untreated controls
Protocol: For evaluating control of tobacco budworm (Heliothis virescens) the test unit consisted of 96-well-microtiter plates containing an insect diet and 15-25 H. virescens eggs.
The compounds were formulated using a solution containing 75% v/v water and 25% v/v DMSO. Different concentrations of formulated compounds were sprayed onto the insect diet at 10 μl, using a custom built micro atomizer, at two replications.
(§1) After application, microtiter plates were incubated at about 28±1° C. and about 80±5% relative humidity for 5 days. Egg and larval mortality was then visually assessed.
The biological activity shown tables under CB.1 and CB.2 was evaluated on scale range from 0% as showing no biological activity to 100% as having total control. The biological tests were conducted as described above.

Myzus persicae = assay: Green peach aphid (Myzus persicae) artificial diet test; format: in vivo; conditions: 72 h, read-out: mortality in comparison with untreated controls
Description: For evaluating control of green peach aphid (Myzus persicae) the test unit consisted of 96-well-microtiter plates containing liquid artificial diet under an artificial membrane.
The compounds were formulated using a solution containing 75% v/v water and 25% v/v DMSO. Different concentrations of formulated compounds were pipetted into the aphid diet, using a custom built pipetter, at two replications.
After application, 5-8 adult aphids were placed on the artificial membrane inside the microtiter plate wells. The aphids were then allowed to suck on the treated aphid diet and incubated at about 23±1° C. and about 50±5% relative humidity for 3 days. Aphid mortality and fecundity was then visually assessed.

Megoura viciae = assay: Vetch aphid (Megoura viciae) leaf disk test; format: in vivo; conditions: foliar, 120 h, read-out: mortality in comparison with untreated controls
Protocol: For evaluating control of vetch aphid (Megoura viciae) through contact or systemic means the test unit consisted of 24-well-microtiter plates containing broad bean leaf disks.
The compounds were formulated using a solution containing 75% v/v water and 25% v/v DMSO. Different concentrations of formulated compounds were sprayed onto the leaf disks at 2.5 μl, using a custom built micro atomizer, at two replications.
After application, the leaf disks were air-dried and 5-8 adult aphids placed on the leaf disks inside the microtiter plate wells. The aphids were then allowed to suck on the treated leaf disks and incubated at about 23±1° C. and about 50±5% relative humidity for 5 days. Aphid mortality and fecundity was then visually assessed.

Ceratitis capitata = assay: Mediterranean fruitfly (Ceratitis capitata) diet/egg test; format: in vivo; conditions: 120 h, read-out: mortality in comparison with untreated controls
Protocol: For evaluating control of Mediterranean fruitfly (Ceratitis capitata) the test unit consisted of microtiter plates containing an insect diet and 50-80 C. capitata eggs.
The compounds were formulated using a solution containing 75% v/v water and 25% v/v DMSO. Different concentrations of formulated compounds were sprayed onto the insect diet at 5 nl, using a custom built micro atomizer, at two replications.
as §1

Anthonomus grandis = assay: Boll weevil (Anthonomus grandis) diet/egg test; format: in vivo; conditions: 120 h, read-out: mortality in comparison with untreated controls
Protocol: For evaluating control of boll weevil (Anthonomus grandis) the test unit consisted of 24-well-microtiter plates containing an insect diet and 20-30 A. grandis eggs.
The compounds were formulated using a solution containing 75% v/v water and 25% v/v DMSO. Different concentrations of formulated compounds were sprayed onto the insect diet at 20 μl, using a custom built micro atomizer, at two replications.
After application, microtiter plates were incubated at about 23±1° C. and about 50±5% relative humidity for 5 days. Egg and larval mortality was then visually assessed.

Aedes aegypti = Aedes aegypti neonate larvae motility assay; format: in vivo; conditions: larval motility, dose response
Protocol: Compounds formulated in 100% DMSO are tested in microtiter plates containing 180 ul 1× Luria Broth media and 10 neonate A. aegypti larvae. The efficacy of a compound is determined based on the motility of the larvae as compared to average motility of control wells containing DMSO only. A dose response assay is conducted with compounds with >80% reduction in motility in the primary assay to determine an EC50 value. Selected compounds are advanced to insecticide secondary assays.

[1] = 2500 ppm, adult aphids on treated artificial diet, 3 days
[2] = 2500 ppm, adult aphids on sprayed broad bean leaf disks, 5 days
[3] = 2500 ppm, egg and larval mortality, 5 days

melting point	SMILES	mortality at 2500 ppm (Ceratitis capitata; [3])	mortality at 2500 ppm (Anthonomus grandis; [3])	EC50 (Aedes aegypti)	further results
	N#CC(CCC(F)(F)F)S(=O)(=O)CCC(F)(F)C(F)(F)F (stereo not shown) [CE. 1, reference compound]				activity in [%] (Heliothis virescens; 800 ppm, scale 0% no biological activity to 100% total control): 0%
	CCOC(=O)C(CCSC(F)(F)F)S(=O)(=O)CCC(F)(F)C(F)(F)F (stereo not shown) [II-3, Ethyl 2-(3,3,4,4,4-Pentafluoro-butane-1-sulfonyl)-4-trifluoromethylsulfanyl-butyrate]	> 90%	> 90%	< 5 µg/mL	mortality at 2500 ppm (Myzus persicae; [1]): > 90%; mortality at 2500 ppm (Megoura viciae; [2]): > 90%
	CCOC(=O)C(C)(CCSC(F)(F)F)S(=O)(=O)CCC(F)(F)C(F)(F)F (stereo not shown) [II-4, Ethyl 2-methyl-2-(3,3,4,4,4-pentafluoro-butane-1-sulfonyl)-4-trifluoromethylsulfanyl-butyrate]	> 90%	> 90%	< 5 µg/mL	mortality at 2500 ppm (Myzus persicae; [1]): > 90%; mortality at 2500 ppm (Megoura viciae; [2]): > 90%
100 to 102 °C	N#CC(CCSC(F)(F)F)S(=O)(=O)Cc1cccc(C(F)(F)F)c1 (stereo not shown) [II-5, 2-(3-Trifluoromethyl-phenylmethanesulfonyl)-4-trifluoromethylsulfanyl-butyronitrile]			< 5 µg/mL	
92 to 94 °C	CC(C#N)(CCSC(F)(F)F)S(=O)(=O)Cc1cccc(C(F)(F)F)c1 (stereo not shown) [II-6, 2-Methyl-2-(3-trifluoromethyl-phenylmethanesulfonyl)-4-trifluoromethylsulfanyl-butyronitrile]			< 5 µg/mL	
122 to 124 °C	N#CC(CCSC(F)(F)F)S(=O)(=O)Cc1ccc(Cl)nc1 (stereo not shown) [II-7, 2-(6-Chloro-pyridin-3-ylmethanesulfonyl)-4-trifluoromethylsulfanyl-butyronitrile]				
129 to 130 °C	N#CC(CCSC(F)(F)F)S(=O)(=O)Cc1ccc(C(F)(F)F)nc1 (stereo not shown) [II-9, 2-(6-Trifluoromethyl-pyridin-3-ylmethanesulfonyl)-4-trifluoromethylsulfanyl-butyronitrile]				
109 to 110 °C	CC(C#N)(CCSC(F)(F)F)S(=O)(=O)Cc1ccc(C(F)(F)F)nc1 (stereo not shown) [II-10, 2-Methyl-2-(6-trifluoromethyl-pyridin-3-ylmethanesulfonyl)-4-trifluoromethylsulfanyl-butyronitrile]				
153 to 155 °C	N#CC(CCSC(F)(F)F)S(=O)(=O)Cc1ccc(C(F)(F)F)cc1 (stereo not shown) [II-11, 2-(4-Trifluoromethyl-phenylmethanesulfonyl)-4-trifluoromethylsulfanyl-butyronitrile]				
102 to 104 °C	CC(C#N)(CCSC(F)(F)F)S(=O)(=O)Cc1ccc(C(F)(F)F)cc1 (stereo not shown) [II-12, 2-Methyl-2-(4-trifluoromethyl-phenylmethanesulfonyl)-4-trifluoromethylsulfanyl-butyronitrile]				
65 to 67 °C	N#CC(CCSC(F)(F)F)S(=O)(=O)Cn1ccc(C(F)(F)F)n1 (stereo not shown) [II-13, 2-(3-Trifluoromethyl-pyrazol-1-ylmethanesulfonyl)-4-trifluoromethylsulfanyl-butyronitrile]				
	CC(C#N)(CCSC(F)(F)F)S(=O)(=O)Cn1ccc(C(F)(F)F)n1 (stereo not shown) [II-14, 2-Methyl-2-(3-trifluoromethyl-pyrazol-1-ylmethanesulfonyl)-4-trifluoromethylsulfanyl-butyronitrile]	> 90%	> 90%		
	N#CC(CCSC(F)(F)F)SCCC(F)(F)C(F)(F)F (stereo not shown) [II-15, 2-(3,3,4,4,4-Pentafluoro-butylsulfanyl)-4-trifluoromethylsulfanyl-butyronitrile]	> 90%	> 90%	< 5 µg/mL	mortality at 2500 ppm (Myzus persicae; [1]): > 90%; mortality at 2500 ppm (Megoura viciae; [2]): > 90%; mortality at 2500 ppm (Heliothis virescens; [3]): > 90%
	N#CC(CCSC(F)(F)F)[S+]([O-])CCC(F)(F)C(F)(F)F (stereo not shown) [II-16, 2-(3,3,4,4,4-Pentafluoro-butane-1-sulfinyl)-4-trifluoromethylsulfanyl-butyronitrile]	> 90%	> 90%		mortality at 2500 ppm (Myzus persicae; [1]): > 90%; mortality at 2500 ppm (Megoura viciae; [2]): > 90%
	CCC(C#N)(CCSC(F)(F)F)S(=O)(=O)CCC(F)(F)C(F)(F)F (stereo not shown) [II-17, 2-Ethyl-2-(3,3,4,4,4-pentafluoro-butane-1-sulfonyl)-4-trifluoromethylsulfanyl-butyronitrile]	> 90%	> 90%	< 5 µg/mL	mortality at 2500 ppm (Myzus persicae; [1]): > 90%; mortality at 2500 ppm (Heliothis virescens; [3]): > 90%
	CCCC(C#N)(CCSC(F)(F)F)S(=O)(=O)CCC(F)(F)C(F)(F)F (stereo not shown) [II-18, 2-(3,3,4,4,4-Pentafluoro-butane-1-sulfonyl)-2-(2-trifluoromethylsulfanyl-ethyl)-pentanenitrile]	> 90%	> 90%	< 5 µg/mL	
	CC(CCSC(F)(F)F)(C(=O)O)S(=O)(=O)CCC(F)(F)C(F)(F)F (stereo not shown) [II-19, 2-Methyl-2-(3,3,4,4,4-pentafluoro-butane-1-sulfonyl)-4-trifluoromethylsulfanyl-butyric acid]		> 90%		mortality at 2500 ppm (Megoura viciae; [2]): > 90%
	CC(CCSC(F)(F)F)(C(N)=O)S(=O)(=O)CCC(F)(F)C(F)(F)F (stereo not shown) [II-20, 2-Methyl-2-(3,3,4,4,4-pentafluoro-butane-1-sulfonyl)-4-trifluoromethylsulfanyl-butyramide]	> 90%	> 90%		
	CNC(=O)C(C)(CCSC(F)(F)F)S(=O)(=O)CCC(F)(F)C(F)(F)F (stereo not shown) [II-21, 2,N-Dimethyl-2-(3,3,4,4,4-pentafluoro-butane-1-sulfonyl)-4-trifluoromethylsulfanyl-butyramide]	> 90%	> 90%		
	CN(C)C(=O)C(C)(CCSC(F)(F)F)S(=O)(=O)CCC(F)(F)C(F)(F)F (stereo not shown) [II-22, 2,N,N-Trimethyl-2-(3,3,4,4,4-pentafluoro-butane-1-sulfonyl)-4-trifluoromethylsulfanyl-butyramide]	> 90%	> 90%	< 5 µg/mL	mortality at 2500 ppm (Myzus persicae; [1]): > 90%; mortality at 2500 ppm (Megoura viciae; [2]): > 90%
	CC(CCSC(F)(F)F)(C(N)=S)S(=O)(=O)CCC(F)(F)C(F)(F)F (stereo not shown) [II-23, 2-Methyl-2-(3,3,4,4,4-pentafluoro-butane-1-sulfonyl)-4-trifluoromethylsulfanyl-thiobutyramide]	> 90%	> 90%		mortality at 2500 ppm (Heliothis virescens; [3]): > 90%
	N#CC(CCSC(F)(F)F)S(=O)(=O)CCC(F)(F)C(F)(F)C(F)(F)F (stereo not shown) [II-24, 2-(3,3,4,4,5,5,5-Heptafluoro-pentane-1-sulfonyl)-4-trifluoromethylsulfanyl-butyronitrile]				mortality at 2500 ppm (Myzus persicae): > 90%; mortality at 2500 ppm (Megoura viciae): > 90%; mortality at 2500 ppm (Anthonomus grandis): > 90%
	CC(C#N)(CCSC(F)(F)F)S(=O)(=O)CCC(F)(F)C(F)(F)C(F)(F)F (stereo not shown) [II-25, 2-(3,3,4,4,5,5,5-Heptafluoro-pentane-1-sulfonyl)-2-methyl-4-trifluoromethylsulfanyl-butyronitrile]				mortality at 2500 ppm (Myzus persicae): > 90%; mortality at 2500 ppm (Megoura viciae): > 90%; mortality at 2500 ppm (Ceratitis capitata): > 90%; mortality at 2500 ppm (Anthonomus grandis): > 90%; mortality at 2500 ppm (Heliothis virescens): > 90%
	CC(C#N)(CCSC(F)(F)F)S(=O)(=O)CCSC(F)(F)F (stereo not shown) [II-26, 2-Methyl-4-trifluoromethylsulfanyl-2-(2-trifluoromethylsulfanyl-ethanesulfonyl)-butyronitrile]		> 90%		
